# Experimental data: PMC4046051, “Two M-T hook residues greatly improve the antiviral activity and resistance profile of the HIV-1 fusion inhibitor SC29EK” (Retrovirology, 2014)
# Peptide text beside a SMILES is read from it.
# Tests used:
# Type in all cases: cell-based
# [1] = test system: molecular clone of HIV-1NL4-3; assay: In vitro selection of HIV-1 resistance in MT-4 cells; settings: 1.5-2 fold escalating concentrations, 22 passages in 4 months
# Procedure: The in vitro selection of HIV-1 resistance to peptide inhibitors was performed as described previously. Briefly, MT-4 cells were seeded at 1 × 10^4 in RPMI 1640 medium containing 10% fetal bovine serum on 12-well plates. The molecular clone of HIV-1NL4–3 was used to infect the cells in the presence or absence of diluted peptide inhibitors (SC29EK, MT-SC29EK, SC22EK and MT-SC22EK). The cells were incubated at 37°C with 5% CO2 until an extensive cytopathic effect was observed. The culture supernatants were harvested and used for next passage on fresh MT-4 cells with 1.5-2 fold increasing concentrations of peptide. Cells and supernatant were harvested at regular time points and stored at -80°C.
# HIV-1NL4-3 pseudovirus = settings: 100 TCID50, TZM-bl cells, 48 h, luciferase, mean ± SD of three independent experiments, SD, read-out: IC50 Entry
# Procedure: (§1) The inhibition of peptides on the HIV-1 entry was determined by single-cycle infection assay as described previously. Briefly, HIV-1 pseudovirus was generated by cotransfecting 293 T cells with an Env-expressing plasmid and a backbone plasmid pSG3^Δenv that encodes Env-defective, luciferase-expressing HIV-1 genome. The supernatants were harvested and filtered 48 h after transfection and 50% tissue culture infectious dose (TCID50) was determined in TZM-bl cells. The peptides were prepared with 3-fold dilutions and mixed with 100 TCID50 viruses and then incubated 1 h at room temperature. The mixture was added to TZM-bl cells (10^4/well) and incubated 48 h at 37°C. The luciferase activity was measured using luciferase assay reagents and a Luminescence Counter (Promega).
# wild-type HIV-1NL4-3 = settings: wild-type HIV-1NL4-3, 100 TCID50, TZM-bl cells, two days, luciferase; mean ± SD of three independent experiments; SD; read-out: IC50 Replication
# Procedure: The inhibition of peptides on HIV-1 replication was determined by a molecular cloned wild-type HIV-1NL4–3. In brief, the virus stock was harvested and quantified 48 h post-transfection. 100 TCID50 viruses were used to infect TZM-bl cells in the presence or absence of serially diluted peptides. Two days post-infection, the cells were harvested and lysed in reporter lysis buffer and the luciferase activity was measured as described above.
# HIV-1 NL4-3 V38M = assay: Inhibition of T20-resistant HIV-1 variants: V38M; settings: mean ± SD of three independent experiments, SD
# Procedure: as §1
# HIV-1 NL4-3 WT = assay: Inhibition of T20-resistant HIV-1 variants panel: WT; settings: mean ± SD of three independent experiments, SD
# Procedure: as §1
# HIV-1 NL4-3 V38A = assay: Inhibition of T20-resistant HIV-1 variants: V38A; settings: mean ± SD of three independent experiments, SD
# Procedure: as §1
# HIV-1 NL4-3 Q40H = assay: Inhibition of T20-resistant HIV-1 variants: Q40H; settings: mean ± SD of three independent experiments, SD
# Procedure: as §1
# HIV-1 NL4-3 N43K = assay: Inhibition of T20-resistant HIV-1 variants: N43K; settings: mean ± SD of three independent experiments, SD
# Procedure: as §1
# HIV-1 NL4-3 D36S/V38M = assay: Inhibition of T20-resistant HIV-1 variants: D36S/V38M; settings: mean ± SD of three independent experiments, SD
# Procedure: as §1
# HIV-1 NL4-3 I37T = assay: Inhibition of T20-resistant HIV-1 variants: I37T; settings: mean ± SD of three independent experiments, SD
# Procedure: as §1
# HIV-1 NL4-3 I37T/N43K = assay: Inhibition of T20-resistant HIV-1 variants: I37T/N43K; settings: mean ± SD of three independent experiments
# Procedure: as §1
molecule,measurement,setting,value
CC[C@H](C)[C@H](NC(=O)[C@H](CC(C)C)NC(=O)[C@H](CCC(=O)O)NC(=O)[C@H](CCC(=O)O)NC(=O)[C@@H](NC(=O)[C@H](CCCCN)NC(=O)[C@H](CCCCN)NC(=O)[C@@H](NC(=O)[C@H](Cc1ccc(O)cc1)NC(=O)[C@H](CCC(=O)O)NC(=O)[C@H](CCC(=O)O)NC(=O)[C@@H](NC(=O)[C@H](CCCCN)NC(=O)[C@H](CCCCN)NC(=O)[C@H](CC(=O)O)NC(=O)[C@H](Cc1c[nH]c2ccccc12)NC(=O)[C@H](CCC(=O)O)NC(=O)[C@H](CCC(=O)O)NC(=O)[C@H](Cc1c[nH]c2ccccc12)NC(=O)[C@@H](NC(=O)[C@H](CCSC)NC(C)=O)[C@@H](C)O)[C@@H](C)CC)[C@@H](C)O)[C@@H](C)CC)C(=O)N[C@@H](CCCCN)C(=O)N[C@@H](CCCCN)C(=O)N[C@@H](CO)C(N)=O [MT-SC22EK] (Ac-MTWEEWDKKIEEYTKKIEELIKKS-NH2),peptide concentration reached during in vitro selection of resistant virus,[1],~100 nM
same,IC50,HIV-1NL4-3 pseudovirus,2.1 ± 0.2 nM
same,IC50,wild-type HIV-1NL4-3,1.1 ± 0.1 nM
"CC[C@H](C)[C@H](NC(=O)[C@H](CCC(=O)O)NC(=O)[C@H](CCCNC(=N)N)NC(=O)[C@H](CCC(=O)O)NC(=O)[C@H](Cc1c[nH]c2ccccc12)NC(=O)[C@@H](NC(=O)[C@H](CCC(=O)O)NC(=O)[C@H](Cc1c[nH]c2ccccc12)NC(=O)[C@H](CO)NC(C)=O)[C@@H](C)O)C(=O)N[C@@H](CCC(=O)O)C(=O)N[C@@H](CC(N)=O)C(=O)N[C@@H](Cc1ccc(O)cc1)C(=O)N[C@H](C(=O)N[C@@H](CCCNC(=N)N)C(=O)N[C@@H](CCC(N)=O)C(=O)N[C@H](C(=O)N[C@@H](Cc1ccc(O)cc1)C(=O)N[C@@H](CCCNC(=N)N)C(=O)N[C@H](C(=O)N[C@@H](CC(C)C)C(=O)N[C@@H](CCC(=O)O)C(=O)N[C@@H](CCC(=O)O)C(=O)N[C@@H](CO)C(=O)N[C@@H](CCC(N)=O)C(=O)N[C@@H](CCC(=O)O)C(=O)N[C@@H](CCC(N)=O)C(=O)N[C@@H](CCC(N)=O)C(=O)N[C@@H](CC(=O)O)C(=O)N[C@@H](CCCNC(=N)N)C(=O)N[C@@H](CC(N)=O)C(=O)N[C@@H](CCC(=O)O)C(=O)N[C@@H](CCCNC(=N)N)C(=O)N[C@@H](CC(=O)O)C(=O)N[C@@H](CC(C)C)C(=O)N[C@@H](CC(C)C)C(=O)N[C@@H](CCC(=O)O)C(N)=O)[C@@H](C)CC)[C@@H](C)CC)[C@@H](C)O [SFT, Sifuvirtide] (Ac-SWETWEREIENYTRQIYRILEESQEQQDRNERDLLE-NH2)",IC50,HIV-1NL4-3 pseudovirus,2.6 ± 0.1 nM
same,IC50,wild-type HIV-1NL4-3,1.5 ± 0.1 nM
CC[C@H](C)[C@H](NC(=O)[C@H](CCC(=O)O)NC(=O)[C@H](CCCNC(=N)N)NC(=O)[C@H](CCC(=O)O)NC(=O)[C@H](Cc1c[nH]c2ccccc12)NC(=O)[C@H](CCC(=O)O)NC(=O)[C@H](CCSC)NC(=O)[C@H](Cc1c[nH]c2ccccc12)NC(=O)[C@@H](NC(=O)[C@H](CCSC)NC(=O)[C@H](CCC(=O)O)NC(=O)[C@H](CC(N)=O)NC(=O)[C@H](Cc1c[nH]c2ccccc12)NC(=O)[C@H](CCC(=O)O)NC(=O)[C@@H](NC(C)=O)C(C)C)[C@@H](C)O)C(=O)N[C@@H](CCC(=O)O)C(=O)N[C@@H](CC(N)=O)C(=O)N[C@@H](Cc1ccc(O)cc1)C(=O)N[C@H](C(=O)N[C@@H](CCCCN)C(=O)N[C@@H](CC(C)C)C(=O)N[C@H](C(=O)N[C@@H](Cc1ccc(O)cc1)C(=O)N[C@@H](CCCCN)C(=O)N[C@H](C(=O)N[C@@H](CC(C)C)C(=O)N[C@@H](CCC(=O)O)C(=O)N[C@@H](CCC(=O)O)C(=O)N[C@@H](CO)C(=O)N[C@@H](CCC(N)=O)C(=O)N[C@@H](CCC(=O)O)C(=O)N[C@@H](CCC(N)=O)C(N)=O)[C@@H](C)CC)[C@@H](C)CC)[C@@H](C)O [CP32M] (Ac-VEWNEMTWMEWEREIENYTKLIYKILEESQEQ-NH2),IC50,HIV-1NL4-3 pseudovirus,1.8 ± 0.2 nM
same,IC50,wild-type HIV-1NL4-3,1 ± 0.2 nM
enfuvirtide,IC50,HIV-1 NL4-3 V38M,378 ± 41.7 nM
same,IC50,HIV-1 NL4-3 WT,52.1 ± 8.5 nM
same,IC50,HIV-1 NL4-3 V38A,1840 ± 56.1 nM
same,IC50,HIV-1 NL4-3 Q40H,1320 ± 92.3 nM
same,IC50,HIV-1 NL4-3 N43K,367 ± 47.4 nM
same,IC50,HIV-1 NL4-3 D36S/V38M,203 ± 12.6 nM
same,IC50,wild-type HIV-1NL4-3,48.6 ± 1.2 nM
same,IC50,HIV-1 NL4-3 I37T,552 ± 123 nM
same,IC50,HIV-1 NL4-3 I37T/N43K,> 2250 nM
CC[C@H](C)[C@H](NC(=O)[C@H](C)NC(=O)[C@H](CCCNC(=N)N)NC(=O)[C@H](CC(=O)O)NC(=O)[C@H](Cc1c[nH]c2ccccc12)NC(=O)[C@H](C)NC(=O)[C@H](CCC(=O)O)NC(=O)[C@H](Cc1c[nH]c2ccccc12)NC(=O)[C@@H](NC(=O)[C@@H](NC(C)=O)[C@@H](C)O)[C@@H](C)O)C(=O)N[C@@H](C)C(=O)N[C@@H](CCC(=O)O)C(=O)N[C@@H](Cc1ccc(O)cc1)C(=O)N[C@@H](C)C(=O)N[C@@H](C)C(=O)N[C@@H](CCCNC(=N)N)C(=O)N[C@H](C(=O)N[C@@H](CCC(=O)O)C(=O)N[C@@H](C)C(=O)N[C@@H](CC(C)C)C(=O)N[C@H](C(=O)N[C@@H](CCCNC(=N)N)C(=O)N[C@@H](C)C(=O)N[C@@H](C)C(=O)N[C@@H](CCC(N)=O)C(=O)N[C@@H](CCC(=O)O)C(=O)N[C@@H](CCC(N)=O)C(=O)N[C@@H](CCC(N)=O)C(=O)N[C@@H](CCC(=O)O)C(=O)N[C@@H](CCCCN)C(=O)N[C@@H](CC(N)=O)C(=O)N[C@@H](CCC(=O)O)C(=O)N[C@@H](C)C(=O)N[C@@H](C)C(=O)N[C@@H](CC(C)C)C(=O)N[C@@H](CCCNC(=N)N)C(=O)N[C@@H](CCC(=O)O)C(=O)N[C@@H](CC(C)C)C(N)=O)[C@@H](C)CC)[C@@H](C)CC [T2635],IC50,HIV-1NL4-3 pseudovirus,1.1 ± 0.1 nM
